Read-outs that look alike come from different tables or passages of the source. Values belong to the compound of their own block, whether it stands above or below them.
Tests used:
[1] = system: food intake; details: central / ICV administration to rodents, literature, cited from earlier work
[2] = biological target: hMC3R (Homo sapiens, UniProt P41968); details: literature (Danho et al); cited from earlier work
[3] = biological target: T1, human MC4R (Homo sapiens, UniProt P32245); details: literature (Yang et al 2000; Danho et al); read-out: agonist activity at the human MC4 receptor; cited from earlier work
T1 construct: expressed in transfected cells; host or cells: HEK-293
T1 sequence (P32245 whole entry): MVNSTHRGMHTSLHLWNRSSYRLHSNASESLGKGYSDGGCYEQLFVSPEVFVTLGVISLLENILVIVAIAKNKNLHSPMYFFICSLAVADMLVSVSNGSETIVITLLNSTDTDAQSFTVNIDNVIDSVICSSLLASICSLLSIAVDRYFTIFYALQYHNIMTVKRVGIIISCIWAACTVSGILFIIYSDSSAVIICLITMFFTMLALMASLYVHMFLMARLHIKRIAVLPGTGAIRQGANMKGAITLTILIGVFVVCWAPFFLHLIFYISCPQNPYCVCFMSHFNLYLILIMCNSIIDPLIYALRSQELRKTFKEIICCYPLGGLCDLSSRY

[4] = biological target: T2, mMC4R (Mus musculus, UniProt P56450); assay: Functional bioassay (CRE/β-galactosidase reporter), agonist activity at mMC4R; type: cell-based; details: HEK-293 cells stably expressing receptor; ± SEM
T2 construct: expressed in transfected cells; host or cells: HEK-293
T2 sequence (P56450 whole entry): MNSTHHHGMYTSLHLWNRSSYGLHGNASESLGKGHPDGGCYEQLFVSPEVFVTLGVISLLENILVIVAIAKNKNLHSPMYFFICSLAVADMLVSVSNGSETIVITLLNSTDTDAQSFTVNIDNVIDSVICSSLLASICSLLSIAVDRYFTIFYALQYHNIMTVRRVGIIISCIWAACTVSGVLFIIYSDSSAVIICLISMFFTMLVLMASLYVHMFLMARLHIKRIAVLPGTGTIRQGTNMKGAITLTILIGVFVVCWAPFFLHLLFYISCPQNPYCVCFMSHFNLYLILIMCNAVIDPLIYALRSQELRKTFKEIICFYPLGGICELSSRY
Protocol: (§1) For cell culture and transfection, briefly, HEK-293 cells were maintained in Dulbecco's modified Eagle's medium (DMEM) with 10% fetal calf serum and seeded 1 day prior to transfection at 1 to 2×10^6 cell/100-mm dish. Melanocortin receptor DNA in the pcDNA3 expression vector (20 μg) were transfected using the calcium phosphate method. Stable receptor populations were generated using G418 selection (1 mg/mL) for subsequent bioassay analysis.
(§2) In the functional bioassay studies, HEK-293 cells stably expressing the melanocortin receptors were transfected with 4 μg CRE/β-galactosidase reporter gene as previously described in the literature. Briefly, 5,000 to 15,000 post transfection cells were plated into 96 well Primera plates (Falcon) and incubated overnight. […] The sample absorbance, OD405, was measured using a 96 well plate reader (Molecular Devices). The relative protein was determined by adding 200 μL 1:5 dilution Bio Rad G250 protein dye:water to the 10 μL cell lysate sample taken previously, and the OD595 was measured on a 96 well plate reader (Molecular Devices). […]
(§3) The pA2 values were generated using the Schild analysis method [Schild, H. O. pA2, A New Scale for the Measurement of Drug Antagonism. […] EC50 and pA2 estimates, and their associated standard errors, were determined by fitting the data to a nonlinear least-squares analysis using the PRISM program (v3.0, GraphPad Inc.).

[5] = biological target: T3, mMC5R (Mus musculus, UniProt P41149); assay: Functional bioassay (CRE/β-galactosidase reporter), agonist activity at mMC5R; type: cell-based; details: HEK-293 cells stably expressing receptor; ± SEM
T3 construct: expressed in transfected cells; host or cells: HEK-293
T3 sequence (P41149 whole entry): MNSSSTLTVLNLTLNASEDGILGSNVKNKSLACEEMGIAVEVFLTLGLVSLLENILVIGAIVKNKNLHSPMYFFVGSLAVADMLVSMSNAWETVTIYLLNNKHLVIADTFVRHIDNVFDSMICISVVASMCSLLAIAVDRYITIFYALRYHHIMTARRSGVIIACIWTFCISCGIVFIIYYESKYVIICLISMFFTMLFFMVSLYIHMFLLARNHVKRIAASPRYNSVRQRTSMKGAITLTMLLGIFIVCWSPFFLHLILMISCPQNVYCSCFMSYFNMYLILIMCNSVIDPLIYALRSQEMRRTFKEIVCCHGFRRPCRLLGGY
Protocol: as §1, §2, §3

hMC3R, sequence (P41968 whole entry): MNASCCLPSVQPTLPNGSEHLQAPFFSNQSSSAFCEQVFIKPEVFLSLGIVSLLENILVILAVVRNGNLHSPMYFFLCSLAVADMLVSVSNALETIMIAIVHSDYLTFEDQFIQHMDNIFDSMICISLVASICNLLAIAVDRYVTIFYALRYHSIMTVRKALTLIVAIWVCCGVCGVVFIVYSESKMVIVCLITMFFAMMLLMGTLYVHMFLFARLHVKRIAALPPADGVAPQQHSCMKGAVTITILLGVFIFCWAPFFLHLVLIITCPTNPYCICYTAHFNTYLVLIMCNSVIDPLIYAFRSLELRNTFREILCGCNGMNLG

Compound: Ac-Nle-c[Asp-His-DNal(2′)-Arg-Trp-Lys]-NH2 [SHU91 19]
effect on food intake [1]: increased food intake
effect on food intake ([1]; listed as SHU-9119): can induce hyperphagia

Compound: c[Asp-(racemic)Atc-DPhe-Arg-Trp-Lys]-NH2
agonist activity at the hMC3R (in words) [2]: only slight agonist activity
EC50 [3]: 65 nM

EC50 [4]: 17.2 ± 2.78 nM
EC50 [5]: 3.96 ± 0.94 nM
Compound: CC(=O)N[C@@H](Cc1c[nH]cn1)C(=O)N[C@H](Cc1ccccc1)C(=O)N[C@@H](CCCNC(=N)N)C(=O)N[C@@H](Cc1c[nH]c2ccccc12)C(N)=O [JRH279-31, Ac-His-DPhe-Arg-Trp-NH2]

From patent publication US7368433B2, “Peptides and methods for the control of obesity” (University of Florida Research Foundation, Inc., priority 2002, dated 2008)
